# Results taken from US10988523B2, “Modified lipidated Relaxin B chain peptides and their therapeutic use” (Sanofi, priority 2018, dated 2021).
# *1 amine or outer side, *2 acyl side, *3 side chain or, on linkers, in order; H or OH if unused. Where a SMILES comes first, the peptide text is derived from it. Side-chain parts run from the residue outwards. [ ]: non-standard residue; d: D form. The star is where a group is joined. X9 = CCCCCCCCCCCCCCCCCC(=O)N[C@@H](CCC(=O)N[C@@H](CCC(=O)N[C@@H](CCC(=O)NCCCC[C@H](NC(=O)COCC(=O)NCCCOCCOCCOCCCN*)C(N)=O)C(=O)O)C(=O)O)C(=O)O; PEG12 = NCCOCCOCCOCCOCCOCCOCCOCCOCCOCCOCCOCCOCCC(=O)O; γGlu = O=C(O)[C@H](CCC(=O)[*:2])N[*:1]; Stearoyl = CCCCCCCCCCCCCCCCCC(=O)*; Palmitoyl = CCCCCCCCCCCCCCCC(=O)*; Nle = CCCC[C@H](N)C(=O)O; AEEA = NCCOCCOCC(=O)O; Aib = CC(C)(N)C(=O)O
# Molecular target: T1, RXFP1 (Homo sapiens, UniProt Q9HBX9)
# T1 construct: OVCAR5 cells expressing endogenous RXFP1; endogenous in cells; host or cells: OVCAR5 cells
# T1 sequence (Q9HBX9 1-757): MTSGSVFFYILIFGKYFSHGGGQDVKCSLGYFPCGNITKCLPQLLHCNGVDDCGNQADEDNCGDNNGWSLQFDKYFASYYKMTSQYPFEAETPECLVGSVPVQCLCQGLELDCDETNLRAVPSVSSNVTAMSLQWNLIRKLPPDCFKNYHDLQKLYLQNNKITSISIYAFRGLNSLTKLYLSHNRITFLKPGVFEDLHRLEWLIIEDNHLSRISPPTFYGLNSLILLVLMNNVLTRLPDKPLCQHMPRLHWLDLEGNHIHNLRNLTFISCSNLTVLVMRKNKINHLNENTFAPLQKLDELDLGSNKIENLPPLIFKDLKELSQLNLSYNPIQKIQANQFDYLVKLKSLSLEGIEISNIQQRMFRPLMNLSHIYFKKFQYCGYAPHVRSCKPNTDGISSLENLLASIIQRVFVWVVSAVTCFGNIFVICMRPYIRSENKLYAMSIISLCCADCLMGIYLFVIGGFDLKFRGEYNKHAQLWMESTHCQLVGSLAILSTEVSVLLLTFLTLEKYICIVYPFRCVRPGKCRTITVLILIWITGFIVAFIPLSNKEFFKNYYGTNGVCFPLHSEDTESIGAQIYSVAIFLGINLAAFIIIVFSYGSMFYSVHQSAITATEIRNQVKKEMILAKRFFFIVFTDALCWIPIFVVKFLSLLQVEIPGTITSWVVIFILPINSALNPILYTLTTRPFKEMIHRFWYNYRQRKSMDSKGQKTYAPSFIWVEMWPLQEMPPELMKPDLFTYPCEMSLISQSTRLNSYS
# Assay: OVCAR5 cAMP assay (HTRF), RXFP1 agonist activity
# Assay type: cell-based
# Settings: for Emax: OVCAR-5, maximal cAMP relative to H2-relaxin maximum (100%), read-out: EMax, OVCAR 5 cells (cAMP); for EC50: OVCAR5 cells, cAMP HTRF, read-out: EC50 (nM), OVCAR 5 cells (cAMP)
# Source text: OVCAR5 cells expressing endogenous RXFP1 were used to test RXP1 agonist properties of peptides of the invention, and in particular of the peptides of sequence SEQ ID NO: 1-193.
# Since RXFP1 is a Gs coupled GPCR, cAMP was used as readout of RXFP1 activation.
# Isobutyl Methyl Xanthine (IBMX) was used to inhibit phosphodiesterase activity facilitating cAMP measurements. HTRF (Homogenous Time Resolved Fluorescence) technology was used to detect cAMP due to its great sensitivity.
# In summary, OVCAR5 were grown in regular medium (RPMI) containing 10% fetal calf serum (FCS) and 1% antibiotics (penicillin/streptomycin).
# Before the experiments, cells were detached with accutase and incubated for 40 minutes at 37° C. with 1 mM (3-isobutyl-1-methylxanthine) IBMX.
# Cells were then distributed in 384 black well plates containing increasing concentrations of the different peptides in a fix volume of medium (without FCS).
# After an incubation of 30 min at 37° C. in an humid incubator in 5% CO2, the reaction was stopped by adding a fixed volume of a solution containing a lysis buffer and cAMP-D2 (cAMP labeled with the dye d2) and the anti cAMP antibody linked to Europium and used for cAMP detection.
# Readout of the experiment were performed on a fluorimeter allowing HTRF measurement. Activation curves were generated by plotting the intracellular value of cAMP versus log 10 of the compound concentration.
# The 50% activation concentration (EC50) was calculated by nonlinear regression using the sigmoidal dose-response (variable slope) equation with Prism 5 software.
# Emax % is determined as the maximal intracellular value of cAMP for test compound (upper limit of cAMP vs concentration curve) divided by the maximal intracellular value of cAMP for H2-relaxin determined in the same test occasion multiplied by 100. Emax %=100×[cAMPtest cpd]/[cAMPH2-RlX]
Structure (SMILES),Emax [%],EC50 [nM]
CCCCCCCCCCCCCCCC(=O)N[C@@H](CCC(=O)N[C@@H](CCC(=O)N[C@@H](CCC(=O)NCCCC[C@H](NC(=O)COCCOCCNC(=O)[C@H](CCCCN)NC(=O)[C@H](CCCNC(=N)N)NC(=O)C(C)(C)NC(=O)[C@H](CO)NC(=O)[C@H](Cc1c[nH]c2ccccc12)NC(=O)[C@@H](NC(=O)[C@H](CO)NC(=O)[C@H](CCCC)NC(=O)CNC(=O)[C@H](CCC(=O)O)NC(=O)C(C)(C)NC(=O)C(C)(C)NC(=O)[C@@H](NC(=O)[C@H](CCC(N)=O)NC(=O)[C@H](C)NC(=O)[C@H](CCCNC(=N)N)NC(=O)[C@@H](NC(=O)[C@H](CCCCN)NC(=O)[C@H](CCC(=O)O)NC(=O)[C@H](CCCNC(=N)N)NC(=O)CNC(=O)[C@H](CCC(=O)O)NC(=O)[C@H](CC(C)C)NC(C)=O)C(C)C)[C@@H](C)CC)[C@@H](C)O)C(N)=O)C(=O)O)C(=O)O)C(=O)O [compound 10] (Ac-LEGREKVRAQI[Aib][Aib]EG[Nle]STWS[Aib]RK[AEEA]K([γGlu-γGlu-γGlu-Palmitoyl])-NH2),96,–
CCCCCCCCCCCCCCCC(=O)N[C@@H](CCC(=O)N[C@@H](CCC(=O)N[C@@H](CCC(=O)NCCCC[C@H](NC(=O)COCCOCCNC(=O)COCCOCCNC(=O)[C@H](CCCCN)NC(=O)[C@H](CCCNC(=N)N)NC(=O)C(C)(C)NC(=O)[C@H](CO)NC(=O)[C@H](Cc1c[nH]c2ccccc12)NC(=O)[C@@H](NC(=O)[C@H](CO)NC(=O)[C@H](CCCC)NC(=O)CNC(=O)[C@H](CCC(=O)O)NC(=O)C(C)(C)NC(=O)C(C)(C)NC(=O)[C@@H](NC(=O)[C@H](CCC(N)=O)NC(=O)[C@H](C)NC(=O)[C@H](CCCNC(=N)N)NC(=O)[C@@H](NC(=O)[C@H](CCCCN)NC(=O)[C@H](CCC(=O)O)NC(=O)[C@H](CCCNC(=N)N)NC(=O)CNC(=O)[C@H](CCC(=O)O)NC(=O)[C@H](CC(C)C)NC(C)=O)C(C)C)[C@@H](C)CC)[C@@H](C)O)C(N)=O)C(=O)O)C(=O)O)C(=O)O [compound 11] (Ac-LEGREKVRAQI[Aib][Aib]EG[Nle]STWS[Aib]RK[AEEA][AEEA]K([γGlu-γGlu-γGlu-Palmitoyl])-NH2),89,–
CCCCCCCCCCCCCCCC(=O)N[C@@H](CCC(=O)N[C@@H](CCC(=O)N[C@@H](CCC(=O)NCCOCCOCC(=O)NCCCC[C@H](NC(=O)COCCOCCNC(=O)[C@H](CCCCN)NC(=O)[C@H](CCCNC(=N)N)NC(=O)C(C)(C)NC(=O)[C@H](CO)NC(=O)[C@H](Cc1c[nH]c2ccccc12)NC(=O)[C@@H](NC(=O)[C@H](CO)NC(=O)[C@H](CCCC)NC(=O)CNC(=O)[C@H](CCC(=O)O)NC(=O)C(C)(C)NC(=O)C(C)(C)NC(=O)[C@@H](NC(=O)[C@H](CCC(N)=O)NC(=O)[C@H](C)NC(=O)[C@H](CCCNC(=N)N)NC(=O)[C@@H](NC(=O)[C@H](CCCCN)NC(=O)[C@H](CCC(=O)O)NC(=O)[C@H](CCCNC(=N)N)NC(=O)CNC(=O)[C@H](CCC(=O)O)NC(=O)[C@H](CC(C)C)NC(C)=O)C(C)C)[C@@H](C)CC)[C@@H](C)O)C(N)=O)C(=O)O)C(=O)O)C(=O)O [compound 12] (Ac-LEGREKVRAQI[Aib][Aib]EG[Nle]STWS[Aib]RK[AEEA]K([AEEA-γGlu-γGlu-γGlu-Palmitoyl])-NH2),76,26.7
CCCCCCCCCCCCCCCC(=O)N[C@@H](CCC(=O)N[C@@H](CCC(=O)N[C@@H](CCC(=O)NCCOCCOCC(=O)NCCOCCOCC(=O)NCCCC[C@H](NC(=O)COCCOCCNC(=O)[C@H](CCCCN)NC(=O)[C@H](CCCNC(=N)N)NC(=O)C(C)(C)NC(=O)[C@H](CO)NC(=O)[C@H](Cc1c[nH]c2ccccc12)NC(=O)[C@@H](NC(=O)[C@H](CO)NC(=O)[C@H](CCCC)NC(=O)CNC(=O)[C@H](CCC(=O)O)NC(=O)C(C)(C)NC(=O)C(C)(C)NC(=O)[C@@H](NC(=O)[C@H](CCC(N)=O)NC(=O)[C@H](C)NC(=O)[C@H](CCCNC(=N)N)NC(=O)[C@@H](NC(=O)[C@H](CCCCN)NC(=O)[C@H](CCC(=O)O)NC(=O)[C@H](CCCNC(=N)N)NC(=O)CNC(=O)[C@H](CCC(=O)O)NC(=O)[C@H](CC(C)C)NC(C)=O)C(C)C)[C@@H](C)CC)[C@@H](C)O)C(N)=O)C(=O)O)C(=O)O)C(=O)O [compound 13] (Ac-LEGREKVRAQI[Aib][Aib]EG[Nle]STWS[Aib]RK[AEEA]K([AEEA-AEEA-γGlu-γGlu-γGlu-Palmitoyl])-NH2),81,–
CCCCCCCCCCCCCCCCCC(=O)N[C@@H](CCC(=O)N[C@@H](CCC(=O)N[C@@H](CCC(=O)N[C@@H](CCC(=O)NCCCC[C@H](NC(=O)COCCOCCNC(=O)COCCOCCNC(=O)COCCOCCNC(=O)COCCOCCNC(=O)[C@H](CCCCN)NC(=O)[C@H](CCCCN)NC(=O)[C@H](CCCNC(=N)N)NC(=O)C(C)(C)NC(=O)[C@H](CO)NC(=O)[C@H](Cc1c[nH]c2ccccc12)NC(=O)[C@@H](NC(=O)[C@H](CO)NC(=O)[C@H](CCCC)NC(=O)CNC(=O)[C@H](CCC(=O)O)NC(=O)C(C)(C)NC(=O)C(C)(C)NC(=O)[C@@H](NC(=O)[C@H](CCCCNC(C)=O)NC(=O)[C@H](C)NC(=O)[C@H](CCCNC(=N)N)NC(=O)[C@@H](NC(=O)[C@H](CCCCN)NC(=O)[C@H](CCC(=O)O)NC(=O)[C@H](CCCNC(=N)N)NC(=O)CNC(=O)[C@H](CCC(=O)O)NC(=O)[C@H](CC(C)C)NC(C)=O)C(C)C)[C@@H](C)CC)[C@@H](C)O)C(N)=O)C(=O)O)C(=O)O)C(=O)O)C(=O)O [compound 15] (Ac-LEGREKVRAK(Ac)I[Aib][Aib]EG[Nle]STWS[Aib]RKK[AEEA][AEEA][AEEA][AEEA]K([γGlu-γGlu-γGlu-γGlu-Stearoyl])-NH2),92,0.32
CCCCCCCCCCCCCCCCCC(=O)N[C@@H](CCC(=O)N[C@@H](CCC(=O)N[C@@H](CCC(=O)NCCCC[C@H](NC(=O)COCC(=O)NCCCOCCOCCOCCCNC(=O)[C@H](CCCCNC(C)=O)NC(=O)[C@H](CCCCN)NC(=O)[C@H](CCCNC(=N)N)NC(=O)C(C)(C)NC(=O)[C@H](CO)NC(=O)[C@H](Cc1c[nH]c2ccccc12)NC(=O)[C@@H](NC(=O)[C@H](CO)NC(=O)[C@H](CCCC)NC(=O)CNC(=O)[C@H](CCC(=O)O)NC(=O)C(C)(C)NC(=O)C(C)(C)NC(=O)[C@@H](NC(=O)[C@H](CCCCNC(C)=O)NC(=O)[C@H](C)NC(=O)[C@H](CCCNC(=N)N)NC(=O)[C@@H](NC(=O)[C@H](CCCCN)NC(=O)[C@H](CCC(=O)O)NC(=O)[C@H](CCCNC(=N)N)NC(=O)CNC(=O)[C@H](CCC(=O)O)NC(=O)[C@H](CC(C)C)NC(C)=O)C(C)C)[C@@H](C)CC)[C@@H](C)O)C(N)=O)C(=O)O)C(=O)O)C(=O)O [compound 18] (Ac-LEGREKVRAK(Ac)I[Aib][Aib]EG[Nle]STWS[Aib]RKK(Ac)-X9),83,0.41
CCCCCCCCCCCCCCCCCC(=O)NCCCC[C@H](NC(=O)CCOCCOCCOCCOCCOCCOCCOCCOCCOCCOCCOCCOCCNC(=O)[C@H](CCCCNC(C)=O)NC(=O)[C@H](CCCCN)NC(=O)[C@H](CCCNC(=N)N)NC(=O)C(C)(C)NC(=O)[C@H](CO)NC(=O)[C@H](Cc1c[nH]c2ccccc12)NC(=O)[C@@H](NC(=O)[C@H](CO)NC(=O)[C@H](CCCC)NC(=O)CNC(=O)[C@H](CCC(=O)O)NC(=O)C(C)(C)NC(=O)C(C)(C)NC(=O)[C@@H](NC(=O)[C@H](CCC(N)=O)NC(=O)[C@H](C)NC(=O)[C@H](CCCNC(=N)N)NC(=O)[C@@H](NC(=O)[C@H](CCCCN)NC(=O)[C@H](CCC(=O)O)NC(=O)[C@H](CCCNC(=N)N)NC(=O)CNC(=O)[C@H](CCC(=O)O)NC(=O)[C@H](CC(C)C)NC(C)=O)C(C)C)[C@@H](C)CC)[C@@H](C)O)C(N)=O [compound 21] (Ac-LEGREKVRAQI[Aib][Aib]EG[Nle]STWS[Aib]RKK(Ac)[PEG12]K(Stearoyl)-NH2),88,–
